Source: PMC4015282, “Transcriptional comparison of the filamentous fungus Neurospora crassa growing on three major monosaccharides D-glucose, D-xylose and L-arabinose” (Biotechnology for Biofuels, 2014)

Tests used:
Type in all cases: cell-based
Conditions in all cases: 3 mM sugar; labelled compound
[1] = target: T1, GLT-1 (NCU01633) (Neurospora crassa, UniProt Q1K4S3); experiment: radiolabelled sugar uptake in recombinant yeast, […] min
T1 construct: cDNA cloned in pRS426 shuttle vector (PGK1 promoter, GFP ORF, CYC1 terminator)
T1 sequence (Q1K4S3 1-532): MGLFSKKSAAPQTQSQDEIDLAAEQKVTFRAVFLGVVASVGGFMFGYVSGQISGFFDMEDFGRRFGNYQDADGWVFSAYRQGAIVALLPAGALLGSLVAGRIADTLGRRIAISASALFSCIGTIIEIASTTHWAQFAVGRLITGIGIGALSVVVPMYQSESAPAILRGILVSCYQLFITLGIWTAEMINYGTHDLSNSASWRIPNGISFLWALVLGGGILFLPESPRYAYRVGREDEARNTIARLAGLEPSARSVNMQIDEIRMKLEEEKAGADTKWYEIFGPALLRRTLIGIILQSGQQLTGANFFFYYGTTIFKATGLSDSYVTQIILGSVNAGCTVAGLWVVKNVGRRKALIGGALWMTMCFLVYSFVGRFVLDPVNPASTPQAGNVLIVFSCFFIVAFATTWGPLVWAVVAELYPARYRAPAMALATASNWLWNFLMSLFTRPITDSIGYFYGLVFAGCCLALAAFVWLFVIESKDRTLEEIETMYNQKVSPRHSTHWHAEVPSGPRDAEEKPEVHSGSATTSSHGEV

[2] = target: T2, LAT-1 (NCU02188) (Neurospora crassa, UniProt Q7S4D2); experiment: as above
T2 construct: expressed from pRS426-type vector in hexose-transporter-null S. cerevisiae EBY.VW4000
T2 sequence (Q7S4D2 1-518): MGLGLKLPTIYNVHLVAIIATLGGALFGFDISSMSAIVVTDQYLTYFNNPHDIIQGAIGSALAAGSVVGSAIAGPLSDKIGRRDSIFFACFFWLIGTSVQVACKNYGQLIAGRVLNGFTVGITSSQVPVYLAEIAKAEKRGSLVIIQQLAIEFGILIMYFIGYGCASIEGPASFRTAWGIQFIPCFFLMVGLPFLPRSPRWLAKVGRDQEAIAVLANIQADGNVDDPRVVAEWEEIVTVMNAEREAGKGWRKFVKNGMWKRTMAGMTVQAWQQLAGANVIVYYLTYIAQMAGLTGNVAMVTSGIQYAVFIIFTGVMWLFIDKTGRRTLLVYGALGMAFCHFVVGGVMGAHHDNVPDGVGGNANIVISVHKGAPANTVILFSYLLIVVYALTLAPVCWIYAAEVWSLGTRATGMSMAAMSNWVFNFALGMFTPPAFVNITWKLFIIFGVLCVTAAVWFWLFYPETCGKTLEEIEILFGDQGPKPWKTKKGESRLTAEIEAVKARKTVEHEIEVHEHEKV

[3] = target: T1, GLT-1 (NCU01633); experiment: radiolabelled sugar uptake in recombinant yeast, […] min; growth complementation
[4] = target: T2, LAT-1 (NCU02188); experiment: as above

Compound: OC1OC[C@@H](O)[C@H](O)[C@H]1O (stereo partly drawn) [D-xylose]
- radiolabelled sugar uptake in recombinant yeast, 2 min [1]: D-glucose uptake was two orders of magnitude higher compared to that of D-xylose

Compound: OC1OC[C@H](O)[C@H](O)[C@H]1O (stereo partly drawn) [L-arabinose]
- radiolabelled sugar uptake in recombinant yeast, 2 min [2]: the L-arabinose uptake rate was much higher than that of D-glucose

Compound: OC[C@H]1OC(O)[C@H](O)[C@@H](O)[C@@H]1O (stereo partly drawn) [D-glucose]
- radiolabelled sugar uptake in recombinant yeast, 2 min; growth complementation [3]: D-glucose uptake was two orders of magnitude higher compared to that of D-xylose
- radiolabelled sugar uptake in recombinant yeast, 2 min; growth complementation [4]: does complement growth of EBY.VW4000 strain on D-glucose, indicating this protein can transport D-glucose
